In PubChem BioAssay AID328 (DTP/NCI, 2004) one finds T/C data, which are given here for 18 compounds.

Structures are written as SMILES. Values joined by “and” are separate entries in the source; they are usually repeats but may differ in a detail not shown here. Equal entries are not always repeated. Toxic doses and inconclusive results are not listed.

The subject of this experiment is BDF1 mice, P388 leukemia ip, median survival T/C. Description: NCI In Vivo Anticancer Drug Screen. Data for tumor model P388 Leukemia (intraperitoneal) in B6D2F1 (BDF1) mice. The settings on record: endpoint: median survival time, higher = longer survival. An outline of the steps: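 In tumour-bearing mice, survival after compound treatment is set against the vehicle group and given as a quotient.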

Where [1] appears, read: dose: 100.0 mg/kg/injection, schedule: Q04DX003 (ip), vehicle: saline.
The mark [2] stands for this setting: dose: 200.0 mg/kg/injection, schedule: Q04DX003 (ip), vehicle: saline.
Where [3] appears, read: dose: 400.0 mg/kg/injection, schedule: Q04DX003 (ip), vehicle: saline.
Setting [4] is: dose: 50.0 mg/kg/injection, schedule: Q01DX009 (ip), vehicle: saline.
Where [5] appears, read: dose: 100.0 mg/kg/injection, schedule: Q01DX009 (ip), vehicle: saline.
Where [6] appears, read: dose: 200.0 mg/kg/injection, schedule: Q01DX009 (ip), vehicle: saline.
Where [7] appears, read: dose: 400.0 mg/kg/injection, schedule: Q01DX009 (ip), vehicle: saline.
[8] abbreviates: dose: 50.0 mg/kg/injection, schedule: Q01DX009 (ip), vehicle: saline with Tween-80.
[9] abbreviates: dose: 200.0 mg/kg/injection, schedule: Q01DX009 (ip), vehicle: saline with Tween-80.
The mark [10] stands for this setting: dose: 50.0 mg/kg/injection, schedule: Q04DX003 (ip), vehicle: saline.
Where [11] appears, read: dose: 12.5 mg/kg/injection, schedule: Q01DX009 (ip), vehicle: Klucel (hydroxypropylcellulose) (HPC).
The mark [12] stands for this setting: dose: 100.0 mg/kg/injection, schedule: Q01DX009 (ip), vehicle: saline with Tween-80.

As to `CCCCCCCC(=O)Nc1cc(C(F)(F)F)ccc1Cl`, the T/C is 100 % of control (dose: 100.0 mg/kg/injection, schedule: Q04DX003 (ip), vehicle: other); 109 % of control (dose: 200.0 mg/kg/injection, schedule: Q04DX003 (ip), vehicle: other); 104 % of control (dose: 400.0 mg/kg/injection, schedule: Q04DX003 (ip), vehicle: other).

In the case of `CCOC(=O)CCOCOCCC(=O)OCC`, the T/C was 100 % of control under setting [1], 95 % of control under setting [2] and 95 % of control under setting [3].

Take `CC(=O)Nc1cc(C)c2ccc(Cl)nc2n1`: the T/C is 97 % of control under setting [1], 92 % of control under setting [2] and 91 % of control under setting [3].

Turning to `CC1(C)OC(COS(C)(=O)=O)C(COS(C)(=O)=O)O1` (stereo not given), the T/C was 101 % of control (dose: 100.0 mg/kg/injection, schedule: Q04DX002 (ip), vehicle: saline with Tween-80); 104 % of control (dose: 200.0 mg/kg/injection, schedule: Q04DX002 (ip), vehicle: saline with Tween-80); 104 % of control (dose: 400.0 mg/kg/injection, schedule: Q04DX002 (ip), vehicle: saline with Tween-80).

For the compound `Nc1ncc(C2OC(CO)C(O)C2O)c(=O)[nH]1` (stereo not given), the T/C is 123 % of control (dose: 16.0 mg/kg/injection, schedule: Q01DX005 (ip), vehicle: saline) and 150 % of control (dose: 128.0 mg/kg/injection, schedule: Q01DX005 (ip), vehicle: saline).

Consider `CCCCNC=O`, for which the T/C by setting is: (dose: 25.0 mg/kg/injection, schedule: Q01DX009 (ip), vehicle: saline) 91 % of control; under setting [4], 100 % of control; (dose: 100.0 mg/kg/injection, schedule: Q01DX001 (ip), vehicle: saline) 100 % of control; under setting [5], 100 % of control and 104 % of control; under setting [1], 95 % of control; (dose: 200.0 mg/kg/injection, schedule: Q01DX001 (ip), vehicle: saline) 100 % of control. For the same compound, the T/C under setting [6] is 104 % of control; the T/C under setting [2] was 95 % of control; the T/C (dose: 400.0 mg/kg/injection, schedule: Q01DX001 (ip), vehicle: saline) is 100 % of control; the T/C under setting [7] was 104 % of control; the T/C under setting [3] is 104 % of control.

Take `Nc1nc(N=Nc2ccc(O)cc2)cc(=O)[nH]1`: the T/C (dose: 50.0 mg/kg/injection, schedule: Q01DX009 (ip), vehicle: other) is 106 % of control; the T/C (dose: 100.0 mg/kg/injection, schedule: Q01DX009 (ip), vehicle: other) was 110 % of control; the T/C (dose: 200.0 mg/kg/injection, schedule: Q01DX009 (ip), vehicle: other) is 103 % of control; the T/C (dose: 400.0 mg/kg/injection, schedule: Q01DX009 (ip), vehicle: other) was 112 % of control.

Regarding `COC(=O)c1c(C)cc(OC(=O)c2c(C)c(Cl)c(O)c(Cl)c2O)cc1O`, the T/C was 91 % of control (dose: 1.25 mg/kg/injection, schedule: Q01DX009 (ip), vehicle: Klucel (hydroxypropylcellulose) (HPC)); 114 % of control (dose: 2.5 mg/kg/injection, schedule: Q01DX009 (ip), vehicle: Klucel (hydroxypropylcellulose) (HPC)); 101 % of control (dose: 5.0 mg/kg/injection, schedule: Q01DX009 (ip), vehicle: Klucel (hydroxypropylcellulose) (HPC)); 108 % of control (dose: 10.0 mg/kg/injection, schedule: Q01DX009 (ip), vehicle: Klucel (hydroxypropylcellulose) (HPC)); 97 % of control (dose: 20.0 mg/kg/injection, schedule: Q01DX009 (ip), vehicle: Klucel (hydroxypropylcellulose) (HPC)).

With `CCOC(=O)C1=C(C)NC(C)=C(C(=O)OCC)C1c1ccccc1`, the T/C reads like this: under setting [8], 95 % of control; under setting [9], 95 % of control.

`CCOC(=O)C(CSCSC)NC(=O)/C=C/c1cccnc1` (stereo not given): the T/C is 96 % of control under setting [5]; 91 % of control (dose: 100.0 mg/kg/injection, schedule: Q04DX003 (ip), vehicle: saline with Tween-80); 106 % of control under setting [6]; 91 % of control (dose: 200.0 mg/kg/injection, schedule: Q04DX003 (ip), vehicle: saline with Tween-80); 104 % of control under setting [7]; 120 % of control (dose: 400.0 mg/kg/injection, schedule: Q04DX003 (ip), vehicle: saline with Tween-80).

Take `CC(=O)N1CCc2cc(N)ccc21`: the T/C is, setting by setting: under setting [10], 95 % of control; under setting [1], 95 % of control; under setting [2], 91 % of control.

Take `Cc1cc(N(CCOS(C)(=O)=O)CCOS(C)(=O)=O)ccc1C=Nc1ccc(-c2csc(Cc3ccccc3)n2)cc1`: the T/C was 100 % of control and 211 % of control (dose: 8.25 mg/kg/injection, schedule: Q01DX009 (ip), vehicle: Klucel (hydroxypropylcellulose) (HPC)); 225 % of control (dose: 12.4 mg/kg/injection, schedule: Q01DX009 (ip), vehicle: Klucel (hydroxypropylcellulose) (HPC)); 250 % of control under setting [11]; 155 % of control (dose: 18.7 mg/kg/injection, schedule: Q01DX009 (ip), vehicle: Klucel (hydroxypropylcellulose) (HPC)); 227 % of control and 178 % of control (dose: 18.75 mg/kg/injection, schedule: Q01DX009 (ip), vehicle: Klucel (hydroxypropylcellulose) (HPC)); 99 % of control (dose: 28.13 mg/kg/injection, schedule: Q01DX009 (ip), vehicle: Klucel (hydroxypropylcellulose) (HPC)).

Regarding `O=c1[nH]cc(F)c(=O)[nH]1.[Tl]`, the T/C (dose: 6.25 mg/kg/injection, schedule: Q01DX009 (ip), vehicle: Klucel (hydroxypropylcellulose) (HPC)) is 117 % of control; the T/C under setting [11] was 102 % of control and 110 % of control; the T/C (dose: 25.0 mg/kg/injection, schedule: Q01DX009 (ip), vehicle: Klucel (hydroxypropylcellulose) (HPC)) is 87 % of control; the T/C (dose: 100.0 mg/kg/injection, schedule: Q01DX009 (ip), vehicle: Klucel (hydroxypropylcellulose) (HPC)) is 91 % of control.

Take `Clc1[nH]nc2ccccc12`: the T/C (dose: 12.5 mg/kg/injection, schedule: Q01DX009 (ip), vehicle: saline with Tween-80) is 91 % of control; the T/C (dose: 25.0 mg/kg/injection, schedule: Q01DX009 (ip), vehicle: saline with Tween-80) was 87 % of control; the T/C under setting [8] was 95 % of control; the T/C (dose: 50.0 mg/kg/injection, schedule: Q04DX003 (ip), vehicle: saline sonified) was 90 % of control; the T/C under setting [12] is 100 % of control; the T/C (dose: 100.0 mg/kg/injection, schedule: Q04DX003 (ip), vehicle: saline sonified) was 90 % of control. The T/C (dose: 200.0 mg/kg/injection, schedule: Q04DX003 (ip), vehicle: saline sonified) is 90 % of control.

As for `O=C1Oc2ccccc2C1=O`, the T/C by setting is: under setting [4], 100 % of control; under setting [10], 100 % of control; under setting [5], 100 % of control; under setting [1], 100 % of control; under setting [2], 100 % of control.

Regarding `COc1ccc(OC)c(/C=C/c2ccnc3ccccc23)c1`, the T/C runs as follows: (dose: 50.0 mg/kg/injection, schedule: Q01DX010 (ip), vehicle: saline) 95 % of control; (dose: 100.0 mg/kg/injection, schedule: Q01DX010 (ip), vehicle: saline) 110 % of control; (dose: 200.0 mg/kg/injection, schedule: Q01DX010 (ip), vehicle: saline) 150 % of control; (dose: 400.0 mg/kg/injection, schedule: Q01DX010 (ip), vehicle: saline) 165 % of control.

Regarding `[NH-]S(=O)(=O)O.[NH-]S(=O)(=O)O.[NH2-].[NH2-].[Pt+4]`, the T/C runs as follows: (dose: 10.0 mg/kg/injection, schedule: Q01DX009 (ip), vehicle: saline with Tween-80) 90 % of control; (dose: 10.0 mg/kg/injection, schedule: Q04DX003 (ip), vehicle: saline) 100 % of control; (dose: 20.0 mg/kg/injection, schedule: Q01DX009 (ip), vehicle: saline with Tween-80) 100 % of control; (dose: 20.0 mg/kg/injection, schedule: Q04DX003 (ip), vehicle: saline) 100 % of control; (dose: 40.0 mg/kg/injection, schedule: Q01DX009 (ip), vehicle: saline with Tween-80) 90 % of control; (dose: 40.0 mg/kg/injection, schedule: Q04DX003 (ip), vehicle: saline) 108 % of control.

Turning to `NC(=O)Oc1ccccc1`, the T/C runs as follows: under setting [12], 104 % of control; under setting [9], 109 % of control; (dose: 400.0 mg/kg/injection, schedule: Q01DX009 (ip), vehicle: saline with Tween-80) 86 % of control.
